# Source: patent publication US8883782B2, “Spiro-tetracyclic ring compounds as beta-secretase modulators and methods of use” (Amgen Inc., priority 2010, dated 2014)
# pIC50: −log10 of the molar value.
# Columns and labels:
# [1] = system: Aβ40 in conditioned medium of cells stably expressing Amyloid Precursor Protein (APP); test: In vitro BACE cell-based assay (Aβ40 in conditioned medium, sandwich ELISA); details: Homo sapiens, HEK293, average IC50; read-out: HEK cell assay
# Outline: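 Quantification relied on pAb40/6E10 sandwich ELISA with Europium fluorescence counts, and IC50 was fitted versus concentration.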
# [2] = molecular target: Beta Secretase enzyme (BACE) (Homo sapiens, UniProt P56817); test: In vitro enzymatic BACE FRET (fluorescence resonance energy transfer) assay; type: biochemical; details: average IC50, enzyme assay; read-out: BACE 1 FRET assay
# Beta Secretase enzyme (BACE), sequence (P56817 46-501, species assumed): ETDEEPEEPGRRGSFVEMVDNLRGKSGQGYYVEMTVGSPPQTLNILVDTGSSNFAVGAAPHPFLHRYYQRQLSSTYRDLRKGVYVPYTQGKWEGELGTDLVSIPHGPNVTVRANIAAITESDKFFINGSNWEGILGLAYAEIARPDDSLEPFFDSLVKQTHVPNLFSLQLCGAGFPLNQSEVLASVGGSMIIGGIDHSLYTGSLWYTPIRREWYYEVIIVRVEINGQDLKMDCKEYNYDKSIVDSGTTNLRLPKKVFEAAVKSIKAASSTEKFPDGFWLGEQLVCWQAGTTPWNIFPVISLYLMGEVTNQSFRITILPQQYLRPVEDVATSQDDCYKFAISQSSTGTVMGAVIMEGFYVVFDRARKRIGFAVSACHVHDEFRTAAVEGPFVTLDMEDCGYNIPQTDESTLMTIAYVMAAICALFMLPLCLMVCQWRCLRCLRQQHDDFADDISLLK
# Outline: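 Run in 0.05 M acetate pH 4.2 with 10% DMSO final and 100 uM genapol; started by adding 50 nM FRET peptide substrate (fluorophore and quencher flanking the cleavage site), incubated one hour, then stopped with Tris to neutral pH before reading fluorescence.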
pIC50 [1],pIC50 [2],Compound
7.65,8.80,"Cc1ccnc(F)c1-c1ccc2c(c1)[C@@]1(COC(N)=N1)c1cc(-c3ccnc(F)c3)ncc1O2 [Example 237, (5S)-7-(2-fluoro-4-methyl-3-pyridinyl)-3-(2-fluoro-4-pyridinyl)spiro[chromeno[2,3-c]pyridine-5,4′-[1,3]oxazol]-2′-amine]"
6.78,7.39,"NC1=N[C@@]2(CO1)c1cc(-c3ccccc3)ccc1Oc1cnc(C3CCOCC3)cc12 [Example 238, (5S)-7-phenyl-3-(tetrahydro-2H-pyran-4-yl)spiro[chromeno[2,3-c]pyridine-5,4′-[1,3]oxazol]-2′-amine]"
6.41,7.47,"COc1ncccc1-c1ccc2c(c1)[C@@]1(COC(N)=N1)c1cc(-c3ccnc(F)c3)ncc1O2 [Example 239, (5S)-3-(2-fluoro-4-pyridinyl)-7-(2-methoxy-3-pyridinyl)spiro[chromeno[2,3-c]pyridine-5,4′-[1,3]oxazol]-2′-amine]"
6.97,7.76,"COc1ncccc1-c1ccc2c(c1)[C@@]1(COC(N)=N1)c1cc(C3=CCOCC3)ncc1O2 [Example 240, (5S)-3-(3,6-dihydro-2H-pyran-4-yl)-7-(2-methoxy-3-pyridinyl)spiro[chromeno[2,3-c]pyridine-5,4′-[1,3]oxazol]-2′-amine]"
7.20,8.47,"NC1=N[C@@]2(CO1)c1cc(-c3cccc(Cl)c3)ccc1Oc1cnc(C3CCOCC3)cc12 [Example 241, (5S)-7-(3-chlorophenyl)-3-(tetrahydro-2H-pyran-4-yl)spiro[chromeno[2,3-c]pyridine-5,4′-[1,3]oxazol]-2′-amine]"
7.68,8.51,"NC1=N[C@@]2(CO1)c1cc(-c3cncc(Cl)c3)ccc1Oc1cnc(C3CCOCC3)cc12 [Example 242, (5S)-7-(5-chloro-3-pyridinyl)-3-(tetrahydro-2H-pyran-4-yl)spiro[chromeno[2,3-c]pyridine-5,4′-[1,3]oxazol]-2′-amine]"
6.54,7.71,"Cn1cc(-c2cccc(-c3ccc4c(c3)[C@@]3(COC(N)=N3)c3cc(C5=CCOCC5)ncc3O4)c2)cn1 [Example 243, (5S)-3-(3,6-dihydro-2H-pyran-4-yl)-7-(3-(1-methyl-1H-pyrazol-4-yl)phenyl)spiro[chromeno[2,3-c]pyridine-5,4′-[1,3]oxazol]-2′-amine]"
6.49,7.27,"CCn1cc(-c2cccc(-c3ccc4c(c3)[C@@]3(COC(N)=N3)c3cc(C5=CCOCC5)ncc3O4)c2)cn1 [Example 244, (5S)-3-(3,6-dihydro-2H-pyran-4-yl)-7-(3-(1-ethyl-1H-pyrazol-4-yl)phenyl)spiro[chromeno[2,3-c]pyridine-5,4′-[1,3]oxazol]-2′-amine]"
6.28,7.64,"Cc1noc(C)c1-c1cccc(-c2ccc3c(c2)[C@@]2(COC(N)=N2)c2cc(C4=CCOCC4)ncc2O3)c1 [Example 245, (5S)-3-(3,6-dihydro-2H-pyran-4-yl)-7-(3-(3,5-dimethyl-4-isoxazolyl)phenyl)spiro[chromeno[2,3-c]pyridine-5,4′-[1,3]oxazol]-2′-amine]"
6.54,7.27,"Cc1cnccc1-c1cc2c(cn1)Oc1ccc(-c3cccnc3F)cc1[C@@]21COC(N)=N1 [Example 246, (5S)-7-(2-fluoro-3-pyridinyl)-3-(3-methyl-4-pyridinyl)spiro[chromeno[2,3-c]pyridine-5,4′-[1,3]oxazol]-2′-amine]"
7.34,7.35,"Cc1ncccc1-c1ccc2c(c1)[C@@]1(COC(N)=N1)c1cc(C3=CCOCC3)ncc1O2 [Example 247, (5S)-3-(3,6-dihydro-2H-pyran-4-yl)-7-(2-methyl-3-pyridinyl)spiro[chromeno[2,3-c]pyridine-5,4′-[1,3]oxazol]-2′-amine]"
6.72,7.00,"Cc1ncccc1-c1ccc2c(c1)[C@@]1(COC(N)=N1)c1cc(-c3ccnc(F)c3)ncc1O2 [Example 248, (5S)-3-(2-fluoro-4-pyridinyl)-7-(2-methyl-3-pyridinyl)spiro[chromeno[2,3-c]pyridine-5,4′-[1,3]oxazol]-2′-amine]"
6.57,7.57,"Cc1nc(F)ccc1-c1ccc2c(c1)[C@@]1(COC(N)=N1)c1cc(C3=CCOCC3)ncc1O2 [Example 251, (5S)-3-(3,6-dihydro-2H-pyran-4-yl)-7-(6-fluoro-2-methyl-3-pyridinyl)spiro[chromeno[2,3-c]pyridine-5,4′-[1,3]oxazol]-2′-amine]"
6.26,7.18,"Cc1nc(F)ccc1-c1ccc2c(c1)[C@@]1(COC(N)=N1)c1cc(-c3ccnc(F)c3)ncc1O2 [Example 252, (5S)-7-(6-fluoro-2-methyl-3-pyridinyl)-3-(2-fluoro-4-pyridinyl)spiro[chromeno[2,3-c]pyridine-5,4′-[1,3]oxazol]-2′-amine]"
6.49,7.44,"Cc1ccc(-c2ccc3c(c2)[C@@]2(COC(N)=N2)c2cc(C4=CCOCC4)ncc2O3)c(F)n1 [Example 253, (5S)-3-(3,6-dihydro-2H-pyran-4-yl)-7-(2-fluoro-6-methyl-3-pyridinyl)spiro[chromeno[2,3-c]pyridine-5,4′-[1,3]oxazol]-2′-amine]"
5.97,7.26,"Cc1ccc(-c2ccc3c(c2)[C@@]2(COC(N)=N2)c2cc(-c4ccnc(F)c4)ncc2O3)c(F)n1 [Example 254, (5S)-7-(2-fluoro-6-methyl-3-pyridinyl)-3-(2-fluoro-4-pyridinyl)spiro[chromeno[2,3-c]pyridine-5,4′-[1,3]oxazol]-2′-amine]"
6.25,7.65,"Cc1nn(C)cc1-c1cccc(-c2ccc3c(c2)[C@@]2(COC(N)=N2)c2cc(C4=CCOCC4)ncc2O3)c1 [Example 255, (5S)-3-(3,6-dihydro-2H-pyran-4-yl)-7-(3-(1,3-dimethyl-1H-pyrazol-4-yl)phenyl)spiro[chromeno[2,3-c]pyridine-5,4′-[1,3]oxazol]-2′-amine]"
8.20,9.00,"CC(C)(C#N)COc1cc(F)c2c(c1)[C@]1(COC(N)=N1)c1cc(-c3cccnc3)ccc1O2 [Example 257, 3-(((4S)-2-amino-4′-fluoro-7′-(3-pyridinyl)spiro[1,3-oxazole-4,9′-xanthen]-2′-yl)oxy)-2,2-dimethylpropanenitrile]"
7.52,8.22,"NC1=N[C@@]2(CO1)c1cc(-c3ccc(F)nc3)ccc1Oc1c(F)cc(OCC3CCOCC3)cc12 [Example 258, (4S)-4′-fluoro-7′-(6-fluoro-3-pyridinyl)-2′-(tetrahydro-2H-pyran-4-ylmethoxy)spiro[1,3-oxazole-4,9′-xanthen]-2-amine]"
7.70,8.57,"CC(C)(F)COc1cc(F)c2c(c1)[C@]1(COC(N)=N1)c1cc(-c3ccc(F)nc3)ccc1O2 [Example 259, (4S)-4′-fluoro-2′-(2-fluoro-2-methylpropoxy)-7′-(6-fluoro-3-pyridinyl)spiro[1,3-oxazole-4,9′-xanthen]-2-amine]"
7.96,8.72,"NC1=N[C@@]2(CO1)c1cc(-c3ccc(F)nc3)ccc1Oc1c(F)cc(C3=CCOCC3)cc12 [Example 260, (4S)-2′-(3,6-dihydro-2H-pyran-4-yl)-4′-fluoro-7′-(6-fluoro-3-pyridinyl)spiro[1,3-oxazole-4,9′-xanthen]-2-amine]"
